{
  "source": "ChEMBL document CHEMBL1201862",
  "about": "“PubChem BioAssay data set” (2004)",
  "key": {"[1]": {"assay": "M. tuberculosis growth inhibition in 7H9, dose response, 7H9 media, purified and synthesized samples, set 3 (AID 504646)", "format": "functional"}, "[2]": {"molecular_target": "Nuclear receptor subfamily 5 group A member 2 (Homo sapiens, UniProt O00482)", "sequence (O00482 whole entry)": "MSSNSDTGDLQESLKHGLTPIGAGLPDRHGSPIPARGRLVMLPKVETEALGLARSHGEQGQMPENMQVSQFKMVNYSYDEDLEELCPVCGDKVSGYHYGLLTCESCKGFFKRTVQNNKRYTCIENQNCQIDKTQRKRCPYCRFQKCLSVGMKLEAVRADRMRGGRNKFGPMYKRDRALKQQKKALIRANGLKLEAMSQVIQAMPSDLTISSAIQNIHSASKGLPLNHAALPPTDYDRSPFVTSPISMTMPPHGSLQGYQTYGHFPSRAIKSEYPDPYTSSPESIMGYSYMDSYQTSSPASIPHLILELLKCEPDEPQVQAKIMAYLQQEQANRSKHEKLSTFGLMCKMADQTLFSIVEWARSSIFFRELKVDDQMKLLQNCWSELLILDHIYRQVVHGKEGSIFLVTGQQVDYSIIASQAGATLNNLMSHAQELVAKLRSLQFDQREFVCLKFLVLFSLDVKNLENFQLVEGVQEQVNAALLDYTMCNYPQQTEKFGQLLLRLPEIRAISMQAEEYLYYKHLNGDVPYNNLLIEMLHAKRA", "format": "functional, cell-based"}, "Steroidogenic factor 1": {"molecular_target": "Steroidogenic factor 1 (Homo sapiens, UniProt Q13285)", "sequence (Q13285 whole entry)": "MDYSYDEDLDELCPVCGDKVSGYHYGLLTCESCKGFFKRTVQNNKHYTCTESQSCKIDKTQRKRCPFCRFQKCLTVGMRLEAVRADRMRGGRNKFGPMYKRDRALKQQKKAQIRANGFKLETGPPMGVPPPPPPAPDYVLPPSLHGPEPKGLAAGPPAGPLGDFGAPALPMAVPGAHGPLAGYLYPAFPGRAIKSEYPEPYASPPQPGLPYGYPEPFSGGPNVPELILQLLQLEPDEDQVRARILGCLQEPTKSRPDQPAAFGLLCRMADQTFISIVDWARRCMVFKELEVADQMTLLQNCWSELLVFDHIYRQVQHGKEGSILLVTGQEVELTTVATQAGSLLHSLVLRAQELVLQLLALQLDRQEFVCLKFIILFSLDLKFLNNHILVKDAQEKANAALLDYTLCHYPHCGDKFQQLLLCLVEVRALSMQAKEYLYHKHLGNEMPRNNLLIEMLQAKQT", "assay": "Counterscreen for inverse agonists of the liver receptor homolog-1 (LRH-1; NR5A2): Luminescence-based cell-based high throughput dose response assay to identify inverse agonists of the Steroidogenic Factor 1 Nuclear Receptor (SF1; NR5A1).", "format": "functional"}, "[3]": {"assay": "StAR promoter reporter inhibition counter-screen, dose response, counter-screen for LRH-1 inverse agonist project, cell-based, luminescence, luciferase reporter (AID 651969)", "format": "functional"}, "[4]": {"test_system": "Streptococcus sp. 'group A'", "assay": "growth inhibition of control SK(-) GAS strain, dose response, counter-screen for streptokinase expression inhibitor project, luminescence, kanamycin, BacTiterGlo, confirmation (AID 1900)", "format": "functional, organism-based"}, "Streptococcus": {"test_system": "Streptococcus", "assay": "Group A Streptococcus viability loss, dose response, counter-screen for streptokinase expression inhibitor project, luminescence, BacTiterGlo (AID 1915);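 note: potency for reduction of bacterial viability or growth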", "format": "functional, organism-based"}, "Vero": {"test_system": "Vero", "assay": "cells", "format": "functional", "details": "Chlorocebus sabaeus"}, "[5]": {"assay": "human group III sPLA2 inhibitors, dose response, biochemical, QFRET, IC50 (AID 743457);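 note: green fluorescence rise as the enzyme cleaves BODIPY PC-A2 in liposomes; potency for inhibition of the enzyme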"}, "Beta-lactamase [6]": {"molecular_target": "Beta-lactamase (Salmonella choleraesuis (strain SC-B67), UniProt Q5J463)", "sequence (Q5J463 whole entry)": "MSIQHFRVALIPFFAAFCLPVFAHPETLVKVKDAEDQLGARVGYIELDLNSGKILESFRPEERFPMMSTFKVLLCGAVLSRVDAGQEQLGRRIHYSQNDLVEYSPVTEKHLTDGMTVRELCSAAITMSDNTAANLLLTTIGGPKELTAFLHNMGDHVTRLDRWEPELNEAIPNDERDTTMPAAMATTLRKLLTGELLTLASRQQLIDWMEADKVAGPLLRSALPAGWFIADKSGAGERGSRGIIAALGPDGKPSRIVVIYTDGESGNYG", "assay": "Epi-absorbance-based counterscreen for selective VIM-2 inhibitors: dose response biochemical high throughput screening assay to identify inhibitors of TEM-1 serine-beta-lactamase."}, "Beta-lactamase [7]": {"molecular_target": "T1, Beta-lactamase (Pseudomonas aeruginosa, UniProt Q79MP6)", "T1 sequence (Q79MP6 whole entry)": "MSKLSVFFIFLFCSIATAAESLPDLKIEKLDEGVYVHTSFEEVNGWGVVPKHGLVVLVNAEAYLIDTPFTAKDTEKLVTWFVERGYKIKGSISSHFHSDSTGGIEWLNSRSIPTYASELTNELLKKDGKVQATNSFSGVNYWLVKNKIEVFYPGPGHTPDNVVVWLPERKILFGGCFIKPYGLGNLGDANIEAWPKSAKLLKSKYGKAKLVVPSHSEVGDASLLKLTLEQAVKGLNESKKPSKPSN", "assay": "IMP-1 metallo-beta-lactamase inhibitors, dose response, selectivity assay for VIM-2 inhibitor project, biochemical, epi-absorbance (AID 1920)"}, "Beta-lactamase [8]": {"molecular_target": "T1, Beta-lactamase", "assay": "[…] counterscreen for selective VIM-2 inhibitors: dose response biochemical high throughput screening assay to identify inhibitors of IMP-1 metallo-beta-lactamase."}, "[9]": {"molecular_target": "T2, Sentrin-specific protease 1 (Homo sapiens, UniProt Q9P0U3)", "T2 sequence (Q9P0U3 whole entry)": "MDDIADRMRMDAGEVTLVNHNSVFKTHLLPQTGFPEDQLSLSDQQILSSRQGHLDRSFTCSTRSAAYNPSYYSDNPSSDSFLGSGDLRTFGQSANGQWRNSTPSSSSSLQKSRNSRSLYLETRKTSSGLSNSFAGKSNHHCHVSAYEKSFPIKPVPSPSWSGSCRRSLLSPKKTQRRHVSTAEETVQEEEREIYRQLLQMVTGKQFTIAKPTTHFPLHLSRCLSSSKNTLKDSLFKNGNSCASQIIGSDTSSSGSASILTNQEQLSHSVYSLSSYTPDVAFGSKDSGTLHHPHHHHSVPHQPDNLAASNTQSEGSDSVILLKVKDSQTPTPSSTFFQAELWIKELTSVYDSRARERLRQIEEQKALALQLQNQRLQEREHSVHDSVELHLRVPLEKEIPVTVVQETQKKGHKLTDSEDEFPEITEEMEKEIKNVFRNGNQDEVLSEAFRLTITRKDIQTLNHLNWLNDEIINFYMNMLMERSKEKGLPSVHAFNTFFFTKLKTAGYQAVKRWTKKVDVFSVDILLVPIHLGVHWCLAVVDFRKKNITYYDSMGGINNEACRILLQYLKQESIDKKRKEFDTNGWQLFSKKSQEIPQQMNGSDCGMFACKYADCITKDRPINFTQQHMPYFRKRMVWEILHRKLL", "assay": "potency of human SENP1 inhibitors, dose response, biochemical, kinetic FRET (AID 651697)", "format": "functional", "details": "read-out: IC50_Mean"}, "[10]": {"molecular_target": "T2, Sentrin-specific protease 1", "assay": "Dose response confirmation of small molecule inhibitors of the catalytic domain of the SUMO protease, SENP1 in a FRET assay.", "format": "functional", "details": "read-out: IC50_Mean"}, "Albumin": {"molecular_target": "Albumin (Bos taurus, UniProt P02769)", "sequence (P02769 whole entry)": "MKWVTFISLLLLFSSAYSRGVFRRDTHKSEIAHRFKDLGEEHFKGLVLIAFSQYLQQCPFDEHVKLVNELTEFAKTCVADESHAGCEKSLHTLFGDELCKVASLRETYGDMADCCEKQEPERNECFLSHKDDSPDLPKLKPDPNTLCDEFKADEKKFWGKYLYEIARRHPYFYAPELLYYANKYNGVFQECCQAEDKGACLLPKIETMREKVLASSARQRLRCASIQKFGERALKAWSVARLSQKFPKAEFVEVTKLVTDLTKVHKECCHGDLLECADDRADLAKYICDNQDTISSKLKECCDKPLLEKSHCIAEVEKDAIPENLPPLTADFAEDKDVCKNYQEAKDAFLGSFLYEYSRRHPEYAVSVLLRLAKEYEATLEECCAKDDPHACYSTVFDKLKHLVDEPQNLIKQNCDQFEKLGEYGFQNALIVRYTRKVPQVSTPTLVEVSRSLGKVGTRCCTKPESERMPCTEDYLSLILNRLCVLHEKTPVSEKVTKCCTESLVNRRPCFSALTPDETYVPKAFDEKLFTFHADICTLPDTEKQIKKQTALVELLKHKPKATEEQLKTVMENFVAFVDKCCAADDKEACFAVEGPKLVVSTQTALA", "assay": "Counterscreen for inhibitors of T-cell receptor (TCR)-CD3 interaction: Fluorescence-based biochemical high throughput dose response assay to identify inhibitors of T-cell receptor (TCR)-CD3 interaction using a TAMRA-labeled BSA probe.", "format": "functional"}, "[11]": {"molecular_target": "T3, Eukaryotic translation initiation factor 2-alpha kinase 3 (Homo sapiens, UniProt Q9NZJ5)", "T3 sequence (Q9NZJ5 whole entry)": "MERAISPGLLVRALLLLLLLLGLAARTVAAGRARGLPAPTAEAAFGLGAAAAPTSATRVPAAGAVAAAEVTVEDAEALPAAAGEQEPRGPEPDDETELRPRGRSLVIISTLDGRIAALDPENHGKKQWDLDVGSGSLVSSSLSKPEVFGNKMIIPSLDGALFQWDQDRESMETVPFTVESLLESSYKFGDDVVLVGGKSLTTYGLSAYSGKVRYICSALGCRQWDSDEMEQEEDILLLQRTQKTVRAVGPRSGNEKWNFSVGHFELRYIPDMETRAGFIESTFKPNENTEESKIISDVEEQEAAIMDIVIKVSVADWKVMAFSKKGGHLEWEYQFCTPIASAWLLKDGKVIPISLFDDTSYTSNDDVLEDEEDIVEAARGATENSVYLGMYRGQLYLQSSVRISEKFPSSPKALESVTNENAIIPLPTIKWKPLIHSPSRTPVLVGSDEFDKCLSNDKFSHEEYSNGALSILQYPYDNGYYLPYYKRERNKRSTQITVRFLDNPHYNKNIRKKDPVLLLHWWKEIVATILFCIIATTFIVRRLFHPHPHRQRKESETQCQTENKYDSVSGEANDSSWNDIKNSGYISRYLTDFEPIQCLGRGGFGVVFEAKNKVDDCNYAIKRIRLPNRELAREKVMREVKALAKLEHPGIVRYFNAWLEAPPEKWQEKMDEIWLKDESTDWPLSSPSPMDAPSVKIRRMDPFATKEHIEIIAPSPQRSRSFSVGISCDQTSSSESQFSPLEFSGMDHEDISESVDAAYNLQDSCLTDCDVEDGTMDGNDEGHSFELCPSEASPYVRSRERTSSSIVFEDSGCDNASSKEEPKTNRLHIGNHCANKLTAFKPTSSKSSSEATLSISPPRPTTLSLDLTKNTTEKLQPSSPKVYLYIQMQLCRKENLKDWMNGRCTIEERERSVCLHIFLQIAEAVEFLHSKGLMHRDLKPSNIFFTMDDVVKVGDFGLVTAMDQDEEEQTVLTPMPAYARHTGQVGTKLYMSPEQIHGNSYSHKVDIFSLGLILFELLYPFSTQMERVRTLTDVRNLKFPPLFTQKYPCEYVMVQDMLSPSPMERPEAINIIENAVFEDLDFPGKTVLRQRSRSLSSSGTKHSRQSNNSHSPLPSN", "assay": "Dose response cell-based high-throughput screening assay to measure PERK inhibition. [Related pubchem assays: 1416 ]", "format": "functional"}, "[12]": {"molecular_target": "T3, Eukaryotic translation initiation factor 2-alpha kinase 3", "assay": "Counterscreen assay for PERK inhibitors: Dose response cell-based high throughput screening assay to measure inhibition of PERK at 6 hours. [Related pubchem assays: 1522, 1416 ]", "format": "functional"}, "INS1": {"test_system": "INS1", "assay": "beta cell apoptosis inhibitors, cytokine rescue, dose response, luminescence, retest (AID 449756);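 note: cell death triggered by IL-1 beta plus TNF-alpha plus IFN-gamma mixture; protective hits raise ATP signal compared with cytokine alone wells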", "format": "functional, cell-based", "details": "Rattus norvegicus"}, "[13]": {"molecular_target": "Photoreceptor-specific nuclear receptor (Homo sapiens, UniProt Q9Y5X4)", "sequence (Q9Y5X4 whole entry)": "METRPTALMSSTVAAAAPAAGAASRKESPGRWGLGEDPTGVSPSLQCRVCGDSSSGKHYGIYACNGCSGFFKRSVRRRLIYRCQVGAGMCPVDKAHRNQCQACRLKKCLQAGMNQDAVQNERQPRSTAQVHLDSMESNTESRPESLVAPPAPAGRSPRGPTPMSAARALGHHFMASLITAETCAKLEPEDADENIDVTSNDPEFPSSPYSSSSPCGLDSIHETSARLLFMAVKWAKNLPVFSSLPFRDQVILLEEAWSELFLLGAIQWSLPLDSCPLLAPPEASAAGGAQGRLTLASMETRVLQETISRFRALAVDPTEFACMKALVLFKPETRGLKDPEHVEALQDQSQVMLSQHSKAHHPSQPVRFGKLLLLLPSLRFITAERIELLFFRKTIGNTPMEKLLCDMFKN", "format": "functional, cell-based"}, "[14]": {"molecular_target": "Mitochondrial peptide methionine sulfoxide reductase (Bos taurus, UniProt P54149)", "sequence (P54149 whole entry)": "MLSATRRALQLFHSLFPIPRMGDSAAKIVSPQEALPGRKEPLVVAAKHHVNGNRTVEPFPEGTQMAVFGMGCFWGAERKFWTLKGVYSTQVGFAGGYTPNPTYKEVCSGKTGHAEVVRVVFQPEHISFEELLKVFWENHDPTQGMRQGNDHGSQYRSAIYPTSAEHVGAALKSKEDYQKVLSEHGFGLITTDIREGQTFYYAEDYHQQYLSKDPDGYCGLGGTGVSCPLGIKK", "assay": "Absorbance-based biochemical high throughput dose response assay for activators of Methionine sulfoxide reductase A (MsrA).", "format": "functional"}},
  "note": "Calls of active or inactive are those of the source.",
  "data": [
    {"smiles": "O=C(NCC1COc2ccccc2O1)C1CCC(CNc2c(N3CCCCC3)c(=O)c2=O)CC1", "note": "(centres undefined)", "values": [
      {"measurement": "IC50", "setting": "[1]", "value": "> 25 µM (active)"}
    ]},
    {"smiles": "COc1ccc(NC(=O)CSc2nnc3ccc(-c4cccnc4)nn23)cc1OC", "values": [
      {"measurement": "IC50", "setting": "[2]", "value": "35.9 µM (inactive)"},
      {"measurement": "IC50", "setting": "Steroidogenic factor 1", "value": "35.9 µM (inactive)"},
      {"measurement": "IC50", "setting": "[3]", "value": "35.9 µM (inactive)"}
    ]},
    {"smiles": "COc1ccc(C(=O)NC(=S)NNC(=O)[C@H]2C[C@@H]2c2ccccc2)cc1OC", "values": [
      {"measurement": "EC50", "setting": "[4]", "value": "1.36 µM (active)"},
      {"measurement": "EC50", "setting": "Streptococcus", "value": "3.19 µM (active)"},
      {"measurement": "CC50", "setting": "Vero", "value": "> 25 µM (active)"},
      {"measurement": "IC50", "setting": "[5]", "value": "65.8 µM (inactive)"}
    ]},
    {"smiles": "O=Cc1c(O)nc2ccccc2c1NCc1ccc(Cl)cc1", "values": [
      {"measurement": "IC50", "setting": "Beta-lactamase [6]", "value": "> 59.6 µM (inactive)"},
      {"measurement": "IC50", "setting": "Beta-lactamase [7]", "value": "> 59.6 µM (inactive)"},
      {"measurement": "IC50", "setting": "Beta-lactamase [8]", "value": "> 59.6 µM (inactive)"}
    ]},
    {"smiles": "N#C/C(=C\\c1cc2ccccc2nc1N1CCCCC1)C(N)=O", "values": [
      {"measurement": "IC50", "setting": "[9]", "value": "53.2 µM (inactive)"},
      {"measurement": "IC50", "setting": "[10]", "value": "25.8 µM (inactive)"}
    ]},
    {"smiles": "O=c1cc(-c2ccc(O)c(O)c2)oc2ccc3ccccc3c12", "values": [
      {"measurement": "IC50", "setting": "Albumin", "value": "> 94.2 µM (inactive)"}
    ]},
    {"smiles": "CCC1(OC(=O)CN)C(=O)OCc2c1cc1n(c2=O)Cc2cc3ccccc3nc2-1", "note": "(centres undefined)", "values": [
      {"measurement": "EC50", "setting": "[11]", "value": "> 55.7 µM (not active)"},
      {"measurement": "EC50", "setting": "[12]", "value": "> 55.7 µM (not active)"},
      {"measurement": "AC50", "setting": "INS1", "value": "2.25 µM (active)"},
      {"measurement": "IC50", "setting": "[13]", "value": "1.23 µM (active)"}
    ]},
    {"smiles": "CC(C)[C@H](NC(=O)c1ccccc1)C(=O)OCc1nc2scc(-c3ccccc3)c2c(=O)[nH]1", "values": [
      {"measurement": "EC50", "setting": "[14]", "value": "> 104 µM (inactive)"}
    ]}
  ]
}
